From patent US20260365641A1, “Aromatic Acetylene Derivative, Preparation Method Therefor, And Use Thereof” (Zhejiang Hisun Pharmaceutical Co., Ltd., priority 2022, published 2026)
In brackets after ≈: the same amount, converted by molar mass.

What was measured:
K. pneumoniae ATCC13883 = assay: Antibacterial activity, minimum inhibitory concentration (MIC) in vitro, broth dilution; assay type: cell-based; conditions: Klebsiella pneumoniae, 5×10^5 cfu/mL, 35 °C, 18-24 hours
Description: (§1) The minimum inhibitory concentration (MIC) in vitro was determined according to CLSI's guidelines, and a minimal broth dilution method was used.
(§2) The test process was briefly described as follows: the tested compound was dissolved in DMSO to prepare a storage solution of […], and then prepared into 11 two-fold-diluted 100× high-concentration working liquids (a final concentration of the system was 64 μg/mL to 0.06 μg/mL) by DMSO. Stains (K. pneumoniae ATCC13883, K. pneumoniae ATCC51504 and E. coli ATCC 25922) frozen at −80 °C with glycerin were inoculated to a solid agar culture medium, placed into an incubator for culturing for 18-24 hours at 35 °C to finish the preparation work of the strains. A proper amount of solid plate culture was collected, re-suspended in normal saline, and uniformly mixed. The turbidity of the bacterial suspension was adjusted to a proper turbidity by a turbidity meter, containing about 1×10^8 cfu/mL of bacteria. Then, the turbidity-regulated bacterial suspension was diluted with a test culture medium (type: CAMHIIB, purchased from BD company) to a bacterial concentration of 5×10^5 cfu/mL, thus finishing the preparation of an inoculation solution. 198 μL of the inoculation solution was inoculated into a 96-well plate, and added with 2 μL 100× high concentration working liquid of the compound, then the 96-well plate was placed at 35 °C for culturing for 18-24 hours.

E. coli ATCC 25922 = assay: as above; assay type: cell-based; conditions: Escherichia coli, ATCC25922, 5×10^5 cfu/mL, 35 °C, 18-24 hours
Description: as §1, §2

[1] = biological target: T1, recombinant Pseudomonas aeruginosa LpxC (Pseudomonas aeruginosa, UniProt P47205); assay: Inhibition of enzymatic activity of recombinant Pseudomonas aeruginosa LpxC in vitro; assay type: biochemical; conditions: 5 nM LpxC; substrate UDP-3-O—(R-3-hydroxydecanoyl)-GlcNAc; 25 °C, 120 minutes; fluorescamine readout
T1 construct: purchased Signalway Antibody AP74647-2
T1 sequence (P47205 1-303): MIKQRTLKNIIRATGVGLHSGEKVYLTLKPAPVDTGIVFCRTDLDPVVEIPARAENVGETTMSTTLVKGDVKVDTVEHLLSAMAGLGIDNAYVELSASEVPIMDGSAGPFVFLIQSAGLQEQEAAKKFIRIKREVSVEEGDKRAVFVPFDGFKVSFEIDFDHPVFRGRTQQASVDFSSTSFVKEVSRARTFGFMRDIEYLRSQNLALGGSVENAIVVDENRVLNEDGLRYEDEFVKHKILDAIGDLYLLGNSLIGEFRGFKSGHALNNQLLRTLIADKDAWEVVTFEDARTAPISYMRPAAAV
Description: The following method was used to determine degrees of inhibition of the compounds of the present invention on the enzymatic activity of recombinant Pseudomonas aeruginosa LpxC in vitro.
The test process was briefly described as follows: the tested compound was first dissolved in DMSO to prepare a 10 mM storage solution. The reaction was carried out in a 96-well microplate. Firstly, 20 μL of recombinant Pseudomonas aeruginosa LpxC (purchased from Signalway Antibody, article number AP74647-2) was added into the wells, and the final concentrations were 5 nM respectively. 5 μL of the compound to be tested was added, diluted in 4-fold, with 8 concentration points, and the concentration range was 0.61-10000 nM. 5 μL of LpxC substrate UDP-3-O—(R-3-hydroxydecanoyl)-GlcNAc (purchased from Biosynth Carbosynth, article number mu75071) was added, wherein a final concentration of the substrate was […], and the substrate was incubated at 25 °C for 120 minutes. Subsequently, 20 μL of 2.0 mg/mL fluorescamine (purchased from sigma aldrich, article number F9015, wherein a solvent was dimethylformamide/acetonitrile (1:1)) was added to the reaction system, mixed evenly and reacted for 10 minutes. Finally, 50 μL of 200 mM sodium phosphate buffer solution (pH 8.0) was added to stop the reaction, and a microplate reader (BMG) was used for reading. An excitation wavelength and an emission wavelength were 390 nm and 495 nm respectively. Compared with the fluorescence intensity ratio of a control group (0.1% DMSO), the percentage inhibition rates of the compounds at each concentration were calculated, and the IC50 values of the compounds were obtained by performing nonlinear regression analysis with logarithmic value of the compound concentration-inhibition rate by GraphPad Prism 5 software, which can be seen in Table 1.

K. pneumoniae ATCC51504 = assay: Antibacterial activity, minimum inhibitory concentration (MIC) in vitro, broth dilution; assay type: cell-based; conditions: Klebsiella pneumoniae, 5×10^5 cfu/mL, 35 °C, 18-24 hours
Description: as §1, §2

Row | SMILES | MIC (K. pneumoniae ATCC13883) | MIC (E. coli ATCC 25922) | IC50 [1] | MIC (K. pneumoniae ATCC51504)
1 | C[C@H](O)c1nccn1Cc1cc(-c2ccc(C#CC3CC4(C3)CN(C(N)=O)C4)cc2)on1 [Example 21, (S)-6-((4-(3-((2-(1-hydroxyethyl)-1H-imidazol-1-yl)methyl)isoxazol-5-yl)phenyl)ethynyl)-2-azaspiro[3.3]heptane-2-carboxamide] | 4 µg/mL (≈ 9.27 µM) | 2 µg/mL (≈ 4.64 µM) | 5.11 nM | 
2 | C[C@H](O)c1nccn1Cc1cc(-c2ccc(C#CC3CC4(CCN(Cc5ncc[nH]5)CC4)C3)cc2)on1 [Example 27, (S)-1-(1-((5-(4-((7-((1H-imidazol-2-yl)methyl)-7-azaspiro[3.5]nonan-2-yl)ethynyl)phenyl)isoxazol-3-yl)methyl)-1H-imidazol-2-yl)ethan-1-ol] | 4 µg/mL (≈ 8.05 µM) | 2 µg/mL (≈ 4.03 µM) | 6.08 nM | 
3 | CNC(=O)N1CC2(CC(C#Cc3ccc(-c4cc(Cn5ccnc5[C@H](C)O)no4)cc3)C2)C1 [Example 47, (S)-6-((4-(3-((2-(1-hydroxyethyl)-1H-imidazol-1-yl)methyl)isoxazol-5-yl)phenyl)ethynyl)-N-methyl-2-azaspiro[3.3]heptane-2-carboxamide] | 2 µg/mL (≈ 4.49 µM) | 2 µg/mL (≈ 4.49 µM) | 13.1 nM | 
4 | C[C@H](O)c1nccn1Cc1cc(-c2ccc(C#CC3CC4(CCN(C(N)=O)CC4)C3)cc2)on1 [Example 19, (S)-2-((4-(3-((2-(1-hydroxyethyl)-1H-imidazol-1-yl)methyl)isoxazol-5-yl)phenyl)ethynyl)-7-azaspiro[3.5]nonane-7-carboxamide] | 4 µg/mL (≈ 8.7 µM) | 2 µg/mL (≈ 4.35 µM) | 6.05 nM | 
5 | C[C@H](O)c1nccn1Cc1cc(-c2ccc(C#CC3CC4(CCN(C=O)C4)C3)cc2)on1 (stereo partly drawn) [Example 23, (S)-2-((4-(3-((2-(1-hydroxyethyl)-1H-imidazol-1-yl)methyl)isoxazol-5-yl)phenyl)ethynyl)-6-azaspiro[3.4]octane-6-carbaldehyde] | 4 µg/mL (≈ 9.29 µM) | 2 µg/mL (≈ 4.65 µM) | 6.36 nM | 
6 | C[C@H](O)c1nccn1Cc1cc(-c2ccc(C#CC3CC4(C3)CN(C(=O)n3ccnc3)C4)cc2)on1 [Example 48, (S)-(6-((4-(3-((2-(1-hydroxyethyl)-1H-imidazol-1-yl)methyl)isoxazol-5-yl)phenyl)ethynyl)-2-azaspiro[3.3]heptan-2-yl)(1H-imidazol-1-yl)methanone] | 2 µg/mL (≈ 4.14 µM) | 2 µg/mL (≈ 4.14 µM) | 27.9 nM | 
7 | C[C@H](O)c1nccn1Cc1cc(-c2ccc(C#CC3CC4(C3)CN(CC(N)=O)C4)cc2)on1 [Example 20, (S)-2-(6-((4-(3-((2-(1-hydroxyethyl)-1H-imidazol-1-yl)methyl)isoxazol-5-yl)phenyl)ethynyl)-2-azaspiro[3.3]heptan-2-yl)acetamide] | 4 µg/mL (≈ 8.98 µM) | 2 µg/mL (≈ 4.49 µM) | 6.77 nM | 
8 | C[C@H](O)c1nccn1Cc1cc(-c2ccc(C#CC3CC4(CCN(Cc5ccn[nH]5)CC4)C3)cc2)on1 [Example 25, (S)-1-(1-((5-(4-((7-((1H-pyrazol-5-yl)methyl)-7-azaspiro[3.5]nonan-2-yl)ethynyl)phenyl)isoxazol-3-yl)methyl)-1H-imidazol-2-yl)ethan-1-ol] | 4 µg/mL (≈ 8.05 µM) | 2 µg/mL (≈ 4.03 µM) | 7.28 nM | 
9 | C[C@H](O)c1nccn1Cc1cc(-c2ccc(C#CC3CC4(CCN(C(=O)CO)CC4)C3)cc2)on1 [Example 12, (S)-2-hydroxy-1-(2-((4-(3-((2-(1-hydroxyethyl)-1H-imidazol-1-yl)methyl)isoxazol-5-yl)phenyl)ethynyl)-7-azaspiro[3.5]nonan-7-yl)ethan-1-one] | 4 µg/mL (≈ 8.43 µM) | 2 µg/mL (≈ 4.21 µM) | 4.06 nM | 
10 | C[C@H](O)c1nccn1Cc1cc(-c2ccc(C#CC3=CCN(C(=O)c4cncnc4)CC3)cc2)on1 [Example 40, (S)-(4-((4-(3-((2-(1-hydroxyethyl)-1H-imidazol-1-yl)methyl)isoxazol-5-yl)phenyl)ethynyl)-3,6-dihydropyridin-1(2H)-yl)(pyrimidin-5-yl)methanone] |  | 2 µg/mL (≈ 4.16 µM) | 21.4 nM | 0.5 µg/mL (≈ 1.04 µM)
11 | C[C@H](O)c1nccn1Cc1cc(-c2ccc(C#CC3=CCN(C(=O)c4ccncc4)CC3)cc2)on1 [Example 33, (S)-(4-((4-(3-((2-(1-hydroxyethyl)-1H-imidazol-1-yl)methyl)isoxazol-5-yl)phenyl)ethynyl)-3,6-dihydropyridin-1(2H)-yl)(pyridin-4-yl)methanone] | 2 µg/mL (≈ 4.17 µM) | 1 µg/mL (≈ 2.09 µM) | 19.7 nM | 
12 | C[C@H](O)c1nccn1Cc1cc(-c2ccc(C#CC3=CCN(CC(N)=O)CC3)cc2)on1 [Example 59, (S)-2-(4-((4-(3-((2-(1-hydroxyethyl)-1H-imidazol-1-yl)methyl)isoxazol-5-yl)phenyl)ethynyl)-3,6-dihydropyridin-1(2H)-yl)acetamide] |  | 2 µg/mL (≈ 4.64 µM) | 23.8 nM | 0.5 µg/mL (≈ 1.16 µM)
13 | C[C@H](O)c1nccn1Cc1cc(-c2ccc(C#CC3CC4(CCN(CC(N)=O)CC4)C3)cc2)on1 [Example 13, (S)-2-(2-((4-(3-((2-(1-hydroxyethyl)-1H-imidazol-1-yl)methyl)isoxazol-5-yl)phenyl)ethynyl)-7-azaspiro[3.5]nonan-7-yl)acetamide] | 1 µg/mL (≈ 2.11 µM) | 1 µg/mL (≈ 2.11 µM) | 5 nM | 
14 | C[C@H](O)c1nccn1Cc1cc(-c2ccc(C#CC3=CCN(Cc4ccc(C(=O)O)cc4)CC3)cc2)on1 [Example 34, (S)-4-((4-((4-(3-((2-(1-hydroxyethyl)-1H-imidazol-1-yl)methyl)isoxazol-5-yl)phenyl)ethynyl)-3,6-dihydropyridin-1(2H)-yl)methyl)benzoic acid] | 4 µg/mL (≈ 7.87 µM) | 2 µg/mL (≈ 3.93 µM) | 26.7 nM | 
15 | C[C@H](O)c1nccn1Cc1cc(-c2ccc(C#CC3CC4(C3)CN(C3CC(C#N)C3)C4)cc2)on1 (stereo partly drawn) [Example 49, (S)-3-(6-((4-(3-((2-(1-hydroxyethyl)-1H-imidazol-1-yl)methyl)isoxazol-5-yl)phenyl)ethynyl)-2-azaspiro[3.3]heptan-2-yl)cyclobutane-1-carbonitrile] | 2 µg/mL (≈ 4.28 µM) | 1 µg/mL (≈ 2.14 µM) | 22.6 nM | 
16 | COCCC(=O)N1CC=C(C#Cc2ccc(-c3cc(Cn4ccnc4[C@H](C)O)no3)cc2)CC1 [Example 67, (S)-1-(4-((4-(3-((2-(1-hydroxyethyl)-1H-imidazol-1-yl)methyl)isoxazol-5-yl)phenyl)ethynyl)-3,6-dihydropyridin-1(2H)-yl)-3-methoxypropan-1-one] |  | 1 µg/mL (≈ 2.17 µM) | 22.9 nM | 0.5 µg/mL (≈ 1.09 µM)
17 | CC(=O)N1CC=C(C#Cc2ccc(-c3cc(Cn4ccnc4[C@H](C)O)no3)cc2)CC1 [Example 62, (S)-1-(4-((4-(3-((2-(1-hydroxyethyl)-1H-imidazol-1-yl)methyl)isoxazol-5-yl)phenyl)ethynyl)-3,6-dihydropyridin-1(2H)-yl)ethan-1-one] |  | 0.5 µg/mL (≈ 1.2 µM) | 18 nM | 0.5 µg/mL (≈ 1.2 µM)
18 | C[C@H](O)c1nccn1Cc1cc(-c2ccc(C#CC3=CCN(C(=O)C4CCCCO4)CC3)cc2)on1 (stereo partly drawn) [Example 65, (4-((4-(3-((2-((S)-1-hydroxyethyl)-1H-imidazol-1-yl)methyl)isoxazol-5-yl)phenyl)ethynyl)-3,6-dihydropyridin-1(2H)-yl)(tetrahydro-2H-pyran-2-yl)methanone] |  | 2 µg/mL (≈ 4.11 µM) | 15.1 nM | 0.5 µg/mL (≈ 1.03 µM)
